Laboratory results published in patent US12357553B2, “Composition for treating hair loss or promoting hair growth, comprising piperonylic acid” (HESED BIO CO., LTD., priority 2017, dated 2025).

How the values were obtained:
HaCaT cells [1] = assay: Cytotoxicity by MTT in HaCaT keratinocytes; format: cell-based
Experimental: The cytotoxicity of piperonylic acid was measured using HaCaT cells which are keratinocytes. When cells are treated with a yellow water-soluble substrate MTT tetrazolium, the substrate is reduced to MTT formazan by mitochondrial enzymes and the color changes to blue-violet. Since the more living cells there are, the darker the blue-violet color appears, the blue-violet absorbance at 540 nm reflects the concentration of living cells. Specifically, after cells were cultured fully in each well of a 96-well plate, cells were treated with piperonylic acid at a concentration of 0, 25, 50, 100, 250, and 500 μM and cultured at 37° C. in a 5% CO2 incubator for 24 hours and 48 hours, and then the viability of cells was measured by an MTT reagent. A control (0 μM) that had not been treated with piperonylic acid was treated with an equal amount of solvent, DMSO.

HaCaT cells [2] = assay: Resistance to UVB-induced cell damage, cell viability by CCK-8; format: cell-based; settings: UVB at 25 mJ/cm^2, 100 μM; negative control 84%
Experimental: Among the ultraviolet wavelengths, the UVB wavelength corresponding to 280 to 315 nm penetrates the epidermal layer where many keratinocytes are present to cause cell damage. […] The solvent DMSO was used as a negative control, and cell viability was measured using the CCK-8 method used in Example 7.

EGFR [3] = target: T1, EGFR (Homo sapiens, UniProt P00533); assay: EGFP-SH2 biosensor system measuring EGFR activation (internalization) in A549 cells; format: cell-based; settings: 100 μM, compared to DMSO control
Experimental: Using these characteristics, a biosensor system was manufactured such that EGFR internalization by the EGFR activation could be measured by a fluorescent protein. Specifically, an EGFP-SH2 vector was manufactured by removing only the SH2 domain of Grb2 and inserted it in an enhanced green fluorescent protein (EGFP) vector using recombinant DNA technology, and then introduced it into A549 cells for expression.
After being cultured in a serum-free medium for 24 hours, the cells were treated with piperonylic acid.

[4] = test system: c-myc, c-jun, c-fos, and egr-1 genes; assay: Change in gene expression in HaCaT cells (real-time quantitative PCR, Western blotting); format: cell-based
Description: Signaling by EGFR induces gene expression that is important for cell growth and survival via important signaling mediator proteins which are ERK and AKT. It is well known that c-myc, c-jun, c-fos, and egr-1 genes are genes which are regulated by EGFR and promote cell growth and survival. […] Specifically, a Tri-reagent was used for mRNA extraction, cDNA was made by a reverse transcription polymerase chain reaction (RT-PCR) using a poly-A primer and a reverse transcriptase, and the amount of each mRNA was measured using real-time quantitative PCR. The amount of each mRNA was corrected with the amount of β-actin which is a housekeeping gene.

EGFR [5] = target: T1, EGFR; assay: Tyrosine phosphorylation of EGFR in HaCaT cells (immunoprecipitation, Western blotting); format: cell-based; set-up: endogenous in cells; host or cells: HaCaT cells; settings: 100 μM for 10 minutes, compared to DMSO
Experimental: In order to confirm whether the binding of piperonylic acid with EGFR directly induces the EGFR activation, HaCaT cells cultured in a serum-free medium were treated with piperonylic acid at a concentration of 100 μM for 10 minutes, and then the activation was measured through an increasing tyrosine phosphorylation of EGFR. Specifically, after only EGFR was precipitated from 500 μg of cell lysate by immunoprecipitation using anti-EGFR antibody and protein-G agarose beads, the level of tyrosine phosphorylation was analyzed by Western blotting method.

HaCaT cells [6] = assay: Growth promotion of keratinocytes by CCK-8 assay; format: cell-based; settings: 50 μM and 100 μM, 24 hours, serum-free, compared to the negative control
Experimental: Cell counting kit-8 (CCK-8) is a water-soluble tetrazolium salt reagent called WST-8, and forms orange water-soluble formazan by a dehydrogenase in the mitochondria of living cells. The absorbance of the orange wavelength at 450 nm as indicated by CCK-8 reflects the number of cells, and thus has been used to measure cell growth and proliferation. The growth promotion efficacy of keratinocytes, HaCaT cells, was measured by CCK-8 assay using non-cytotoxic piperonylic acid at a concentration of 50 μM and 100 μM. Specifically, after 1×10^4 HaCaT cells were cultured on a 96-well plate for 24 hours, growth factors in the medium were removed by exchanging the medium with a serum-free medium, and then the cells were treated with piperonylic acid. […] After the cells were cultured for 24 hours, the cell growth was analyzed by treating the cells with CCK8 and measuring the absorbance at 450 nm.

ERK = ERK activation (phosphorylation) in HaCaT cells, Western blotting; format: cell-based
Experimental: (§1) It is well known that the activation of extracellular signal-regulated kinase (ERK) and protein kinase B (AKT) are induced by the EGFR activation and transmit signals required for cell growth and survival. Accordingly, as the activation of EGFR by piperonylic acid was verified in Examples 2 and 3, it was determined whether ERK and AKT, the downstream of EGFR, were also activated by piperonylic acid. Specifically, after HaCaT cells were cultured in a serum-free medium, the cells were treated with piperonylic acid at 0, 25, and 100 μM, and then ERK and AKT, which were activated when phsphorylated, were analyzed by Western blotting method. As antibodies, phosphor-site specific antibodies which are labeling factors of activated ERK and AKT and antibodies that measure total ERK and AKT were used, and GAPDH expressed from a housekeeping gene was measured in order to correct the amount of total proteins between lanes.
(§2) Subsequently, in order to confirm the pattern of ERK and AKT activities by piperonylic acid treatment over time, HaCaT cells cultured in a serum-free medium were treated with piperonylic acid, and then the activity pattern over time was analyzed.
(§3) In order to verify that the activation of ERK and AKT by piperonylic acid were induced by EGFR, the activity of EGFR was suppressed by treating cells with tyrphostin AG1478 which is an EGFR antagonist, and then the activities of ERK and AKT by piperonylic acid were analyzed.

[7] = test system: dermal papilla cells related to androgenic alopecia; assay: Scratch (yellow tip) proliferation assay in dermal papilla cells related to androgenic alopecia; format: cell-based, human; settings: 100 μM, 24 hours and 48 hours, serum-free, vs DMSO
Description: Meanwhile, in order to investigate the proliferation pattern of dermal papilla cells related to androgenic alopecia during treatment with piperonylic acid, a 12-well cell culture plate was fully filled with the dermal papilla cells, and the cells were injured using a yellow tip. […] A solvent DMSO was used as a negative control.

HaCaT cells [8] = assay: Wound healing assay in keratinocytes; format: cell-based; settings: 50 μM and 100 μM, culturing for 3 days, vs negative control
Experimental: Further, the cell growth promotion efficacy by piperonylic acid was confirmed through a wound healing assay. Specifically, after HaCaT cells were cultured fully on a 12-well plate, a wound area was formed using a yellow tip, and the cells were treated with piperonylic acid at 50 μM and 100 μM after exchanging the medium with a serum-free medium.

cyclin D = assay: Cyclin D protein level in dermal papilla cells, western blotting; format: cell-based, human; settings: 25 and 50 μM, 24 hours, compared to the control
Experimental: In addition, in order to investigate a gene expression pattern involved in the proliferation of dermal papilla cells related to androgenic alopecia, the human dermal papilla cells were cultured in a serum-free medium for 24 hours, and then treated with 25 and 50 μM piperonylic acid, respectively. The cells were treated with a drug, and after 24 hours, the levels of cyclin D were analyzed by the western blotting method. As an antibody, GAPDH, which is always expressed constantly, was used to correct the total protein amount between the cyclin D antibody and each lane. A solvent DMSO was used as a negative control.

EGFR [9] = target: T1, EGFR; assay: Pull-down of EGFR from HaCaT cell lysate with piperonylic acid-conjugated Sepharose 4B bead, Western blotting; format: binding; set-up: endogenous in cells; host or cells: HaCaT cells; settings: 100 μM of free piperonylic acid added with the cell lysate
Experimental: In order to investigate the mechanism of EGFR activation by piperonylic acid confirmed in Example 2, it was confirmed in the present example whether piperonylic acid could interact with EGFR. For this purpose, piperonylic acid-4B bead was manufactured by conjugating piperonylic acid to a Cyanogen bromide-activated-Sepharose 4B bead purchased from Sigma-Aldrich. Equal amounts of HaCaT cell lysates were incubated with piperonylic acid-4B bead and control-4B used as the control, and proteins bound to the bead were analyzed by the Western blotting method. An anti-EGFR antibody was used in order to measure EGFR among the precipitated proteins, and anti-Actin and anti-GAPDH antibodies against actin and GAPDH proteins present in large amounts as housekeeping genes were used in order to support that the binding to piperonylic acid was selective.

[10] = test system: dermal papilla cells related to androgenic alopecia; assay: Proliferation of dermal papilla cells related to androgenic alopecia by MTT; format: cell-based, human; settings: 50 μM, 24 hours, serum-free, vs DMSO
Description: The dermal papilla cells related to androgenic alopecia used in the experiment were a cell line that was immortalized by inserting hTERT and SV40-Tag into dermal papilla cells (DPCs, passage 1) derived from male androgenic alopecia patients, and purchased from Epibiotech Co., Ltd. and used. The proliferation of dermal papilla cells was confirmed using MTT tetrazolium. MTT tetrazolium is reduced to MTT formazan by intracellular mitochondrial enzymes, and at this time, the yellow color turns blue violet. The more cells there are, the stronger the reduction, so a stronger blue violet color appears, and the concentration of living cells is measured by measuring the absorbance of the blue violet color at 540 nm. Specifically, 1×10^4 cells are aliquoted into 96-well cell culture plates and cultured for 24 hours. Thereafter, a serum-free medium was treated with 50 μM piperonylic acid, and then cultured for 24 hours. Then, after the cells were treated with the MTT reagent for 2 hours, cell growth was analyzed by adding DMSO thereto and confirming the color development at […]. A solvent DMSO was used as a negative control.

AKT = AKT activation (phosphorylation) in HaCaT cells, Western blotting; format: cell-based
Experimental: as §1, §2, §3

[11] = 100 μM, 10 minutes, compared to the control
[12] = piperonylic acid treatment, serum-free medium
[13] = AG1478 at 200 nM for 10 minutes, then piperonylic acid

T1 sequence (P00533 25-1210): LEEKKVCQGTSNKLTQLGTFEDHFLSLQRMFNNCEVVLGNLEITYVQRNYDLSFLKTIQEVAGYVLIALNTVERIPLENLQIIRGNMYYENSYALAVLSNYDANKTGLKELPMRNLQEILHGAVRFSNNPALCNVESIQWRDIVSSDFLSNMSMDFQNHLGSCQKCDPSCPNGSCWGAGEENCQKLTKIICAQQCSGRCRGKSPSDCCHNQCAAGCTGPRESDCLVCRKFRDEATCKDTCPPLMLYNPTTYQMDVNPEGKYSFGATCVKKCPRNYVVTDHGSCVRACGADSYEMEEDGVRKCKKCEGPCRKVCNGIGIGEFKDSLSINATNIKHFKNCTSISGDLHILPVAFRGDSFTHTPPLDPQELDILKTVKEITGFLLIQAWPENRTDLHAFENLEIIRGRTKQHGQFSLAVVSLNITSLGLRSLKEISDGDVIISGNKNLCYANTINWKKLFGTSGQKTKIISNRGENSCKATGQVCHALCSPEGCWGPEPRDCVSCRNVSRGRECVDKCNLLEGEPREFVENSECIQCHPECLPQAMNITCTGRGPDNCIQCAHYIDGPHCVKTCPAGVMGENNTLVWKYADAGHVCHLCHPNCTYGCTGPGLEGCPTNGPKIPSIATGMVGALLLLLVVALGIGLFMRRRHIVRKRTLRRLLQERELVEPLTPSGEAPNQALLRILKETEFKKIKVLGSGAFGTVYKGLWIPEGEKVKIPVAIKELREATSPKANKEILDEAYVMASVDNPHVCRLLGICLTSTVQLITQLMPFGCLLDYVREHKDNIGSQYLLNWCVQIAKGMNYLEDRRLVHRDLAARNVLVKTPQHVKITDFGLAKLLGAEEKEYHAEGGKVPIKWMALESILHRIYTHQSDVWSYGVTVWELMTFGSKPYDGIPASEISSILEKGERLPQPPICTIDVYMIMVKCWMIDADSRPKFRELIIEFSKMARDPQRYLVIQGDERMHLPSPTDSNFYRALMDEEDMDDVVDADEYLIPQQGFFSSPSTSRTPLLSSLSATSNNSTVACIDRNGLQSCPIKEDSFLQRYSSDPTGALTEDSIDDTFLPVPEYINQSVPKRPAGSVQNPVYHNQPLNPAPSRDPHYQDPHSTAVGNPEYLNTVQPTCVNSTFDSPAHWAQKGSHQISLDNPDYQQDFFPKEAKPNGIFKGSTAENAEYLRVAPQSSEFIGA

Compound | cytotoxicity to keratinocytes (HaCaT cells [1]; 0-500 μM, 24 and 48 hours) | difference in cell viability from control (HaCaT cells [1]; 500 μM for 48 hours) | cells survived after UVB (HaCaT cells [2]) [%] | EGFR activation in biosensor system (change in fluorescence signal) (EGFR [3]) | expression of Egr-1 and c-Fos proteins ([4]; 100 μM) | mRNA expression of c-jun ([4]; 100 μM, 0, 1, 2, and 6 hours) | tyrosine phosphorylation of EGFR (EGFR [5]) [fold] | cell growth and proliferation (CCK-8) (HaCaT cells [6]) | ERK activation (ERK; [11]) [fold] | pattern of ERK activity over time (ERK; [12]) | cell proliferation of dermal papilla cells (scratch) [7] | filling of wound area (HaCaT cells [8]) | expression of cyclin D protein (cyclin D) | amount of EGFR bound to bead under competition (EGFR [9]) | cell proliferation of dermal papilla cells (MTT) [10] | AKT activation (AKT; [11]) [fold] | pattern of AKT activity over time (AKT; [12]) | gene expression of c-fos and egr-1 increased by piperonylic acid ([4]; AG1478 pre-treatment, piperonylic acid at 100 μM, 2 hours) | ERK activation by piperonylic acid after EGFR antagonist (ERK; [13]) | AKT activation by piperonylic acid after EGFR antagonist (AKT; [13])
O=C(O)c1ccc2c(c1)OCO2 [piperonylic acid] | very low | about 10% | 89 | EGFR was activated | increase in expression | increasing tendency | 1.8 | significantly increased | 3.3 | rapidly induced for 5 to 10 minutes | promoted cell proliferation | more rapidly filled | significantly increased | the amount of EGFR bound thereto was reduced | promoted cell proliferation | 2.1 | rapidly induced for 5 to 10 minutes | – | – | –
COc1cc2ncnc(Nc3cccc(Cl)c3)c2cc1OC [AG1478, tyrphostin AG1478, reference compound] | – | – | – | – | – | – | – | – | – | – | – | – | – | – | – | – | – | completely suppressed | not activated | not activated
